Publication PMC7024208, “In Silico and In Vitro Experimental Studies of New Dibenz[b,e]oxepin-11(6H)one O-(arylcarbamoyl)-oximes Designed as Potential Antimicrobial Agents” (Molecules, 2020)
Values after ≈ are worked out from the molar mass of the structure shown. Where two headings read alike, the source gives them in different places.

Legend:
B. subtilis ATCC 6633 [1] = test: MIC by liquid medium microdilution; format: cell-based, Bacillus subtilis; conditions: B. subtilis ATCC 6633, 24 h at 37 °C
Protocol: (§1) The antimicrobial activities of the synthesized compounds were determined against ATCC reference and clinical microbial strains, i.e., Bacillus subtilis ATCC 6633, Staphylococcus aureus ATCC 25923, Escherichia coli ATCC 25922, Klebsiella pneumoniae 350, Pseudomonas aeruginosa 1671 and Candida albicans ATCC 10231, using as positive controls the antibiotic ticarcillin and the antifungal agent fluconazole. Microbial suspensions of 1.5 × 10^8 CFU/mL corresponding to 0.5 McFarland density obtained from 15–18 h bacterial cultures developed on solid media were used in our experiments. The antimicrobial activity was tested on Mueller-Hinton Agar (MHA) medium, while a Yeast Peptone Glucose (YPG) medium was used in case of C. albicans. The obtained compounds were solubilized in DMSO and the starting stock solution was of 5000 μg/mL concentration. The qualitative screening was performed by an adapted disk diffusion method as previously reported.
(§2) The quantitative assay of the antimicrobial activity was performed by the liquid medium microdilution method, in 96 multi-well plates, in order to establish the minimal inhibitory concentration (MIC). In this purpose, serial two-fold dilutions of the compounds ranging between 5000 and 4.8 µg/mL were performed in a 200 µL volume of broth and each well was seeded with 50 µL of microbial inoculum. Sterility control (wells containing only culture medium) and culture controls (wells containing culture medium seeded with the microbial inoculum) were used. The influence of the DMSO solvent was also quantified in a series of wells containing DMSO [36], diluted accordingly with the dilution scheme used for the compounds and for the positive controls.

P. aeruginosa ATCC 27853 = test: Qualitative antimicrobial screening, adapted disk diffusion; format: cell-based; parameters: zone of inhibition: dose or concentration left out as unconfirmed; conditions: Pseudomonas aeruginosa; for zone of inhibition at 5000 µg/mL (stock): ATCC27853, P. aeruginosa ATCC 27853, adapted diffusion assay, read-out: growth inhibition diameter
[2] = Annexin V-FITC/propidium iodide apoptosis analysis by flow cytometry; format: cell-based; conditions: human, HCT8 cells, Annexin V-FITC/PI, read-out: viable cells (Q4)
Protocol: (§3) For the in vitro assessment of the cytotoxic effect, the HCT8 cells and the CellTiter Assay kit (Promega, Madison, WI, USA) and Annexin V-FITC Apoptosis Detection Kit I (BD Bioscience Pharmingen, Franklin Lakes, NJ, USA) were used. Briefly, for CellTiter Assay, 1 × 10^4 cells/well were plated in 96 well plate and 24 h after, were treated with the new compound at final concentration between 400 µg/mL–10 µg/mL. The viability was evaluated after 24 h by adding CellTiter aqueous solution and reading to spectrophotometer according to the manufacturer indications. The IC50 were calculated from the percent of viability reported to untreated cells using on line tools https://www.aatbio.com/tools/ic50-calculator. For Annexin V-FITC Apoptosis Detection Kit I, 5 × 10^5 cells were seeded in 3.5 cm diameter Petri dish and treated with 100 µg/mL compounds solution for 24 h. The total cells were resuspended in 100 µL of binding buffer, and stained with 5 µL Annexin V-FITC and 5 µL propidium iodide for 10 min in dark. At least 10,000 events from each sample were acquired using a flow cytometer (Beckman Coulter, Indianapolis, IN, USA). The percentage of cells affected by the treatment was determined by subtracting the percentage of apoptotic/necrotic cells in the untreated population from percentage of apoptotic cells in the treated population.

E. coli ATCC 25922 [3] = test: Qualitative antimicrobial screening, adapted disk diffusion; format: cell-based, Escherichia coli; parameters: zone of inhibition: dose or concentration left out as unconfirmed; conditions: for growth inhibition diameter / zone of inhibition at 5000 µg/mL (stock): E. coli ATCC 25922, adapted diffusion assay; for zone of inhibition at 5000 µg/mL (stock): ATCC25922, read-out: growth inhibition diameter
Protocol: as §1

S. aureus ATCC 25923 [4] = test: MIC by liquid medium microdilution; format: cell-based; conditions: Staphylococcus aureus
Protocol: as §1, §2

E. coli ATCC 25922 [5] = test: MIC by liquid medium microdilution; format: cell-based; conditions: Escherichia coli
Protocol: as §1, §2

C. albicans ATCC 10231 [6] = test: MIC by liquid medium microdilution; format: cell-based; conditions: Candida albicans
Protocol: as §1, §2

K. pneumoniae 1771 = test: Qualitative antimicrobial screening, adapted disk diffusion; format: cell-based, Klebsiella pneumoniae; parameters: zone of inhibition: dose or concentration left out as unconfirmed; conditions: for zone of inhibition at 5000 µg/mL (stock): Klebsiella pneumoniae, K. pneumoniae 1771, adapted diffusion assay, read-out: growth inhibition diameter
[7] = Cytotoxicity, CellTiter Assay; format: cell-based; conditions: human, HCT8 cells, 400–10 µg/mL tested
Protocol: as §3

C. albicans ATCC 10231 [8] = test: Qualitative antimicrobial screening, adapted disk diffusion; format: cell-based, Candida albicans; parameters: zone of inhibition: dose or concentration left out as unconfirmed; conditions: for growth inhibition diameter / zone of inhibition at 5000 µg/mL (stock): C. albicans ATCC 10231, adapted diffusion assay; for zone of inhibition at 5000 µg/mL (stock): ATCC10231, read-out: growth inhibition diameter
Protocol: as §1

S. aureus ATCC 25923 [9] = test: Antibiofilm activity (MBEC), micro-titer method on plastic inert substratum; format: cell-based, Staphylococcus aureus; conditions: S. aureus ATCC 25923 biofilm on plastic substratum
Protocol: (§4) The assessment of the new compounds influence on the microbial ability to colonize the plastic inert substratum was performed by the micro-titer method, following previously described protocols. The absorbance at 490 nm was measured with an LB 911 ELISA reader (Apollo, Berthold Technologies GmbH & Co. KG, Bad Wildbad, Germany). All biological experiments were performed in triplicates.

S. aureus ATCC 25923 [10] = test: Qualitative antimicrobial screening, adapted disk diffusion; format: cell-based, Staphylococcus aureus; parameters: zone of inhibition: dose or concentration left out as unconfirmed; conditions: for zone of inhibition at 5000 µg/mL (stock): ATCC25923, read-out: growth inhibition diameter
Protocol: as §1

B. subtilis ATCC 6633 [11] = test: as above; format: cell-based, Bacillus subtilis; parameters: zone of inhibition: dose or concentration left out as unconfirmed; conditions: for growth inhibition diameter / zone of inhibition at 5000 µg/mL (stock): B. subtilis ATCC 6633, adapted diffusion assay; for zone of inhibition at 5000 µg/mL (stock): ATCC6633, read-out: growth inhibition diameter
Protocol: as §1

C. albicans ATCC 10231 [12] = test: Antibiofilm activity (MBEC), micro-titer method on plastic inert substratum; format: cell-based, Candida albicans; conditions: C. albicans ATCC 10231 biofilm on plastic substratum
Protocol: as §4

B. subtilis ATCC 6633 [13] = test: as above; format: cell-based, Bacillus subtilis; conditions: B. subtilis ATCC 6633 biofilm on plastic substratum
Protocol: as §4

[14] = ATCC25923, S. aureus ATCC 25923, 24 h at 37 °C, read-out: MIC
[15] = ATCC25922, E. coli ATCC 25922, 24 h at 37 °C, read-out: MIC
[16] = ATCC10231, C. albicans ATCC 10231, 24 h at 37 °C, read-out: MIC
[17] = Staphylococcus aureus, S. aureus ATCC 25923, adapted diffusion assay

SMILES | viability at 24 h, 100 µg/mL [2] [%] | IC50 at 24 h [7] [µg/mL] | zone of inhibition at 5000 µg/mL (stock) (P. aeruginosa ATCC 27853) [mm] | zone of inhibition at 5000 µg/mL (stock) (E. coli ATCC 25922 [3]; Escherichia coli) [mm] | zone of inhibition at 5000 µg/mL (stock) (K. pneumoniae 1771) [mm] | zone of inhibition at 5000 µg/mL (stock) (C. albicans ATCC 10231 [8]; Candida albicans) [mm] | zone of inhibition at 5000 µg/mL (stock) (S. aureus ATCC 25923 [10]; [17]) [mm] | zone of inhibition at 5000 µg/mL (stock) (B. subtilis ATCC 6633 [11]; Bacillus subtilis) [mm] | other results
O=C(Nc1ccc(F)cc1)ON=C1c2ccccc2COc2ccccc21 [Compound 7b, 6,11-Dihydrodibenz[b,e]oxepin-11(6H)one O-(4-fluorophenyl-carbamoyl)oxime] | 84.3 | 252 (≈ 695 µM) | – | – | – | – | – | – | MIC (B. subtilis ATCC 6633 [1]): 4.8 µg/mL (≈ 13.2 µM); MIC (B. subtilis ATCC 6633 [1]; Bacillus subtilis, ATCC6633, 24 h): 4.8 to 39 µg/mL (≈ 13.2 to 108 µM); zone of inhibition (P. aeruginosa ATCC 27853; ATCC27853, read-out: growth inhibition diameter): 0 mm; zone of inhibition (E. coli ATCC 25922 [3]; Escherichia coli, ATCC25922, read-out: growth inhibition diameter): 0 mm; MIC (S. aureus ATCC 25923 [4]; ATCC25923, 24 h): > 5000 µg/mL; MIC (E. coli ATCC 25922 [5]; ATCC25922, 24 h): > 5000 µg/mL; MIC (C. albicans ATCC 10231 [6]; ATCC10231, 24 h): > 5000 µg/mL; zone of inhibition (K. pneumoniae 1771; Klebsiella pneumoniae, 1771, read-out: growth inhibition diameter): 0 mm; zone of inhibition (C. albicans ATCC 10231 [8]; Candida albicans, ATCC10231, read-out: growth inhibition diameter): 0 mm; MBEC (S. aureus ATCC 25923 [9]): 19.5 µg/mL; zone of inhibition (S. aureus ATCC 25923 [10]; Staphylococcus aureus, ATCC25923, read-out: growth inhibition diameter): 0 mm; growth inhibition diameter (B. subtilis ATCC 6633 [11]): active exclusively on B. subtilis; zone of inhibition (B. subtilis ATCC 6633 [11]; Bacillus subtilis, ATCC6633, read-out: growth inhibition diameter): 7 mm
O=C(Nc1cccc(Cl)c1)ON=C1c2ccccc2COc2ccccc21 [Compound 7c, 6,11-Dihydrodibenz[b,e]oxepin-11(6H)one O-(3-chlorophenyl-carbamoyl)oxime] | 89.8 | 304 (≈ 803 µM) | 0 | 4 | 0 | 8 | 0 | 0 | MIC (B. subtilis ATCC 6633 [1]; Bacillus subtilis, ATCC6633, 24 h, read-out: MIC): > 5000 µg/mL; growth inhibition diameter (E. coli ATCC 25922 [3]): active against; MIC (S. aureus ATCC 25923 [4]; [14]): > 5000 µg/mL; MIC (E. coli ATCC 25922 [5]; [15]): 1250 µg/mL (≈ 3300 µM); MIC (C. albicans ATCC 10231 [6]; [16]): 1250 µg/mL (≈ 3300 µM); MBEC (C. albicans ATCC 10231 [12]): 4.8 µg/mL; growth inhibition diameter (C. albicans ATCC 10231 [8]): active against
O=C(Nc1ccc(Cl)cc1)ON=C1c2ccccc2COc2ccccc21 [Compound 7d, 6,11-Dihydrodibenz[b,e]oxepin-11(6H)one O-(4-chlorophenyl-carbamoyl)oxime] | – | – | 0 | 0 | 0 | 0 | 0 | 0 | –
O=C(Nc1ccc(Cl)cc1Cl)ON=C1c2ccccc2COc2ccccc21 [Compound 7e, 6,11-Dihydrodibenz[b,e]oxepin-11(6H)one O-(2,4-dichlorophenyl-carbamoyl)oxime] | – | – | 0 | 0 | 0 | 0 | 0 | 0 | –
O=C(Nc1cccc(C(F)(F)F)c1)ON=C1c2ccccc2COc2ccccc21 [Compound 7f, 6,11-Dihydrodibenz[b,e]oxepin-11(6H)one O-(3-trifluoromethylphenyl-carbamoyl)oxime] | 14.8 | 54.3 (≈ 132 µM) | 0 | 10 | 0 | 12 | 8 | 11 | growth inhibition diameter (E. coli ATCC 25922 [3]): inhibited the microbial growth; MIC (S. aureus ATCC 25923 [4]; [14]): 4.8 µg/mL (≈ 11.6 µM); MIC (E. coli ATCC 25922 [5]; [15]): 78 µg/mL (≈ 189 µM); MBEC (B. subtilis ATCC 6633 [13]): 39 µg/mL; growth inhibition diameter (C. albicans ATCC 10231 [8]): inhibited the microbial growth; MBEC (S. aureus ATCC 25923 [9]): 39 µg/mL; growth inhibition diameter (S. aureus ATCC 25923 [10]; S. aureus ATCC 25923, adapted diffusion assay): inhibited the microbial growth; growth inhibition diameter (B. subtilis ATCC 6633 [11]): inhibited the microbial growth
Cc1ccc2c(c1)C(=NOC(=O)Nc1ccc(Cl)cc1Cl)c1ccccc1CO2 [Compound 7g, 2-Methyl-6,11-dihydro-dibenz[b,e]oxepin-11(6H)one O-(2,4-dichlorophenyl-carbamoyl)oxime] | – | – | 0 | 0 | 0 | 0 | 0 | 0 | –
CCc1ccc2c(c1)C(=NOC(=O)Nc1ccccc1)c1ccccc1CO2 [Compound 7h, 2-Ethyl-6,11-dihydro-dibenz[b,e]oxepin-11(6H)one O-(phenyl-carbamoyl)oxime] | – | – | 0 | 0 | 0 | 0 | 0 | 0 | –
CCc1ccc2c(c1)C(=NOC(=O)Nc1ccc(F)cc1)c1ccccc1CO2 [Compound 7i, 2-Ethyl-6,11-dihydro-dibenz[b,e]oxepin-11(6H)one O-(4-fluorophenyl-carbamoyl)oxime] | – | – | 0 | 0 | 0 | 0 | 0 | 0 | –
CCc1ccc2c(c1)C(=NOC(=O)Nc1ccc(Cl)cc1Cl)c1ccccc1CO2 [Compound 7j, 2-Ethyl-6,11-dihydro-dibenz[b,e]oxepin-11(6H)one O-(2,4-dichlorophenyl-carbamoyl)oxime] | – | – | 0 | 0 | 0 | 0 | 0 | 0 | –
OC(Cn1cncn1)(Cn1cncn1)c1ccc(F)cc1F [Fluconazole, fluconazole, reference compound] | – | – | – | – | – | 10 | – | – | MIC (C. albicans ATCC 10231 [6]; [16]): 4.8 µg/mL (≈ 15.7 µM); MBEC (C. albicans ATCC 10231 [12]): 39 µg/mL
